Measurements as given in patent publication US20100286145A1, “ISOPHTHALAMIDE DERIVATIVES INHIBITING BETA-SECRETASE ACTIVITY” (CoMentis, Inc., priority 2007, published 2010).

How the values were obtained:
[1] = Plasma pharmacokinetic analysis in rats, i.v. bolus; format: in vivo; details: male, Sprague-Dawley, rat
Excerpt: (§1) Quantitative analysis was used to determine the concentration of a test inhibitor, N1-((2S,3R)-4-((5-(2-fluoropropan-2-yl)pyridin-3-yl)methylamino)-3-hydroxy-1-phenylbutan-2-yl)-N3-methyl-N3-((4-methylthiazol-2-yl)methyl)isophthalamide, in biological tissues. The test inhibitor was extracted from a variety of biological samples followed by its selective identification and quantification from a standard curve prepared in the same extracted biological matrix. Briefly, this extraction is accomplished through a simple protein precipitation technique performed on collected plasma. The resultant extractions are then quantified using the LC/MS protocol as detailed herein.
Whole blood from animals dosed with the test inhibitor was collected in lithium heparin anti-coagulant tubes. These samples were centrifuged to allow the subsequent collection of plasma, with plasma aliquots immediately stored at −70° C. For quantitative analysis, the samples were then thawed on ice and a 20 μl aliquot was added to a well of a multi-screen Solvinert filter plate (Millipore). A five-fold volume of acetonitrile was added to each sample to facilitate protein precipitation, the samples were multiply aspirated or shaken to mix and then centrifuged at 4500 rpm for 15 minutes to filter the samples, with the supernatant being collected in an underlying 96 well receiving plate. The receptor plate was then dried via speed vacuum at 40° C. The sample was reconstituted by multiple aspirations with a reconstitution buffer composed of 10% acetonitrile, 10% DMSO, 80% H2O with an internal standard added at a concentration of 100 ng/ml. Standards of the test inhibitor were prepared in 100% DMSO for the generation of a standard curve for sample quantification. The samples range from 1 to 100000 ng/ml, as required for the analysis. A 1 μl aliquot of standard was added per 10 μl of blank plasma to construct a calibration curve, 0.1 ng/ml to 10000 ng/ml, prior to the protein precipitation step again as required for analysis. Quality control samples were prepared identically, from an alternate standard source and a single sample was prepared with an identical volume spike added post precipitation and collection to monitor the extraction efficiency. This method was applicable to plasma from all species currently being tested. Solvinert filter wells were pre-washed with 100 μl of 10% MeOH/90% ACN followed by centrifugation at 4500 RPM for 10 min prior to use.
(§2) Quantitative analysis was performed through LC/MS analysis. The system was composed of an Eksigent Express LC 100 microflow HPLC system, coupled with an Eksigent CXP C-8AR 0.3*50 mm, or other suitable column, and a Thermo TSQuantum Classic triple quadrupole mass spectrometer running in positive ion, SRM mode. The HPLC buffers were 99.5% H2O, 0.5% formic acid (buffer A) and 99.5% acetonitrile, 0.5% formic acid (buffer B). Typically, a 10 μl aliquot was injected onto the column followed by a 1.5 minute chromatographic analysis. This analysis was conducted at a 20 μl/min flow rate, and composed of a gradient from 15% B to 90% B followed by a 98% B flush to facilitate compound separation and quantitation. Each sample was analyzed in duplicate, with QC, and system blank samples run after every sample set. The column effluent was analyzed in real time by MS/MS to allow the positive identification and quantification of the test inhibitor by compound fingerprint analysis. This was accomplished by allowing only species of 586.3 Da to pass through the first quadrupole, followed by collision induced decay in quadrupole two and scanning analysis of selected daughter ions specific to the test compound in quadrupole three. The collected data was analyzed using the LCQuan software package from Thermo Electron, to determine the levels of the test compound in the samples.
Male Sprague-Dawley Rats (200-400 g) were obtained from Taconic Farms (Hudson, N.Y.) with a pre-implanted jugular vein cannula (JVC) for blood sampling. […]

[2] = Brain pharmacokinetic analysis / brain penetration in rats, i.v. bolus; format: in vivo
Excerpt: as §1, §2
Male Sprague-Dawley Rats (200-400 g) were obtained from Taconic Farms (Hudson, N.Y.) with a pre-implanted jugular vein cannula (JVC) for blood sampling. A solution (5 mg/mL, free base equivalents) of the test inhibitor, N1-((2S,3R)-4-((5-(2-fluoropropan-2-yl)pyridin-3-yl)methylamino)-3-hydroxy-1-phenylbutan-2-yl)-N3-methyl-N3-((4-methylthiazol-2-yl)methyl)isophthalamide mono-citrate salt, was prepared freshly in 35% hydroxypropyl-β-cyclodextrin (HPBCD). Intravenous bolus injection was conducted using a 25 gauge needle via the tail vein. Animals were supplied with water and a commercial rodent diet ad libitum prior to and during the study.
Blood samples (˜100 μl at each time point) for plasma pharmacokinetic (PK) analysis were collected from the JVC cannula into lithium-heparin tubes at 2 min, 5 min, 15 min, 30 min, 45 min, 1 hr, 2 hr, 4 hr, 6 hr and 24 hr post-dose (Group A in Table 2). For compartmental PK analysis, blood and brain were collected from animals in Group B (Table 2) at 15 min, 1 hr, 2 hr, 4 hr, and 6 hr post-dose, with three rats assigned to each time point. Animals were deeply anesthetized with isoflurane and blood collected by cardiocentesis. Plasma separated by centrifugation at 6000 rpm×10 min. Brain hemispheres were subsequently harvested and snap frozen in liquid nitrogen. Plasma and brain samples were subsequently stored at −70° C.
Bioanalysis of the test inhibitor from plasma and brain extracts was performed according to standard procedures. Briefly, 20 μl of plasma was extracted with 100 μl of acetonitrile using a 96-well Solvinert filter plate (Millipore). Samples were subjected to LC/MS/MS analysis using an Eksigent Express LC 100 microflow HPLC system, coupled with an Eksigent CXP C-18AR 0.3*50 mm column, and a Thermo TSQuantum Classic triple quadrupole mass spectrometer running in positive ion, SRM mode. […]

[3] = male, Sprague-Dawley, rat, in vivo, iv, 10 mg/kg

## Cc1csc(CN(C)C(=O)c2cccc(C(=O)N[C@@H](Cc3ccccc3)[C@H](O)CNCc3cncc(C(C)(C)F)c3)c2)n1 [N1-((2S,3R)-4-((5-(2-fluoropropan-2-yl)pyridin-3-yl)methylamino)-3-hydroxy-1-phenylbutan-2-yl)-N3-methyl-N3-((4-methylthiazol-2-yl)methyl)isophthalamide]
[1]; plasma, rats, single 10 mg/kg intravenous dose, read-out: 24 hr plasma AUC
  AUC: 2580 ng·h/mL
[2]; male, Sprague-Dawley, rat, in vivo, iv, 10 mg/kg, Penetration (%), brain relative to plasma AUC24 hr
  Kp: 0.468

## Cc1csc(CN(C)C(=O)c2cccc(C(=O)N[C@@H](Cc3ccccc3)[C@H](O)CNCc3cncc(C(C)(C)F)c3)c2)n1 [test inhibitor, N1-((2S,3R)-4-((5-(2-fluoropropan-2-yl)pyridin-3-yl)methylamino)-3-hydroxy-1-phenylbutan-2-yl)-N3-methyl-N3-((4-methylthiazol-2-yl)methyl)isophthalamide]
[1]; in vivo, iv, 10 mg/kg
  concentration at 0.25 h: 2500 ng/mL
  concentration at 1 h: 548 ng/mL
  concentration at 2 h: 130 ng/mL
  concentration at 4 h: 31.1 ng/mL
  concentration at 6 h: 5.7 ng/mL
  concentration at 24 h: 2.2 ng/mL
[1]; plasma, iv, 10 mg/kg, rats, i.v. bolus 10 mg/kg, read-out: Plasma Terminal phase t1/2 (converted)
  half-life: 13.1 h
[1]; plasma, iv, 10 mg/kg, rats, single 10 mg/kg intravenous dose, read-out: half-life in plasma
  half-life: 6 to 13 h
[1]; plasma, iv, rats, single dose i.v. 10 mg/kg, read-out: AUC24 hr, Plasma
  AUC(0-t): 2580 ng·h/mL
[2]; [3]
  Brain Terminal phase t1/2: 34.3 h
  MRT last: 12 h
  Penetration (%), brain relative to plasma AUC24 hr: 46.8%
  concentration at 0.25 h: 160 ng/mL
  concentration at 1 h: 71.1 ng/mL
  concentration at 2 h: 72.4 ng/mL
  concentration at 4 h: 28 ng/mL
  concentration at 6 h: 42.7 ng/mL
  concentration at 24 h: 52.5 ng/mL
[2]; male, Sprague-Dawley, rat, in vivo, iv, 10 mg/kg, Brain Terminal phase t1/2
  half-life: 34 h
[2]; male, Sprague-Dawley, rat, in vivo, iv, rats, single dose i.v. 10 mg/kg, read-out: AUC24 hr, Brain
  AUC(0-t): 1210 ng·h/mL
[2]; rats, i.v. bolus 10 mg/kg
  Brain AUC24 hr: 1206.2 ng·h/mL
